Measurements published in patent publication US9255063B2, “Colchicine solid-state forms; methods of making; and methods of use thereof” (Takeda Pharmaceuticals U.S.A., Inc., priority 2008, dated 2016).

Tests used:
[1] = TG-FTIR, N2 atmosphere, heating rate 10 K/min, range 25° C. to 350° C.
[2] = 81% RH; nitrogen; 38 days
Procedure: Five techniques are used to find colchicine solid forms: 1) suspension equilibration, 2) precipitation 3) drying and water vapor adsorption, 4) evaporation, and 5) melt quench. Suspension equilibration generally is carried out by slurrying the colchicine in a solvent system, optionally including an antisolvent. Precipitation generally is carried out by adding an antisolvent to a solution of colchicine. Evaporation technique is generally carried out by allowing the solvent of a solution of colchicine to evaporate to induce crystallization of the colchicine. Water vapor adsorption technique generally involves exposing colchicine to a controlled humid environment so that the material takes up water. The drying experiments can be performed under inert atmospheres (e.g., nitrogen). Melt quench generally involves fast cooling a melt to form a solid.

Structure (SMILES) | Decomposition is observed above (temperature) [1] | Ethyl acetate content after water vapor adsorption [2] [% ethyl] | Water content after water vapor adsorption [2] [% water and]
COc1cc2c(c(OC)c1OC)-c1ccc(OC)c(=O)cc1[C@@H](NC(C)=O)CC2 [Form E] | above 250 °C | – | –
COc1cc2c(c(OC)c1OC)-c1ccc(OC)c(=O)cc1[C@@H](NC(C)=O)CC2 [Form A, (−)-N-[(7S,12aS)-1,2,3,10-tetramethoxy-9-oxo-5,6,7,9-tetrahydrobenzo[a]heptalen-7-yl]-acetamide] | above 275 °C | 2 | 4
COc1cc2c(c(OC)c1OC)-c1ccc(OC)c(=O)cc1[C@@H](NC(C)=O)CC2 [Form F] | above 280 °C | – | –
